Data: article PMC11594329, “Development of LAT1-Selective Nuclear Medicine Therapeutics Using Astatine-211” (International Journal of Molecular Sciences, 2024)

Legend:
LAT1-Tet/HEK293 cells = assay: Uptake versus LAT1 expression level (Dox-induced) in LAT1-Tet/HEK293 cells; format: cell-based; details: collection 30 min after treatment
Method: Each cell line was seeded in 24 wells at 1 × 10^5 cells/mL and allowed to become sub-confluent on the day of the experiment. Cells were washed with PBS (-) (Fujifilm Wako Pure Chemical, Osaka, Japan) prior to the addition of the compound, which was then replaced with uptake buffer. After treating the cells with the same dose, they were collected at predetermined time points. The cell dose was measured using a γ-counter (Wizard^2 2480; PerkinElmer, Waltham, MA, USA), and the protein content of the sample was determined. Protein content was measured using the BCA method, and the dose was corrected using the protein content (Protein Assay BCA kit, Fujifilm Wako Pure Chemical).
Figure 2 Comparison of uptake between the labeled compounds. (A) Relation between uptake ratio and LAT1 expression level. Uptake ratios were compared between LAT1-Tet/HEK293 cells. The Y-axis represents the uptake ratio, and the X-axis is concentration of Doxycycline (Dox) (TaKaRa Bio, Shiga, Japan). The collection time was 30 min after treatment. The expression of LAT1 increased with increasing amounts of Dox. (B) Comparison of uptake in PANC-1 cell line. The collection times were 0.5, 1, 5 and 10 min after treatment.
The PANC-1 cell line was obtained from the RIKEN Cell Bank and maintained in RPMI 1640 medium (Fujifilm Wako Pure Chemical, Osaka, Japan) supplemented with 10% inactivated fetal bovine serum (Thermo Fisher Scientific, Waltham, MA, USA). Mock/HEK293, LAT1/HEK293, and LAT2/HEK203 cells were kindly provided by Dr. Kanai. Cell lines controlling LAT1 expression were constructed using the Tet-on system. HEK293 cells were obtained from the RIKEN Cell Bank and maintained in E-MEM (Fujifilm Wako Pure Chemical) supplemented with 10% inactivated fetal bovine serum (Thermo Fisher Scientific) and non-essential amino acids (Fujifilm Wako Pure Chemical). The expression vectors were purchased from VectorBuilder, Inc. (Kanagawa, Japan). The purified viral particle genes were transfected into HEK293 cells. Drug selection and cloning of the cell line (Tet-LAT1/HEK293) were performed. […]

PANC-1 tumor model = assay: Tissue distribution in nude mice (PANC-1 tumor model); format: in vivo, BALB/c nu/nu mice; details: nude mice (PANC-1 tumor model)
Method: BALB/c nu/nu mice (male, 5 weeks old) were purchased from Japan SLC (Shizuoka, Japan) and subcutaneously transplanted at a density of 1 × 10^7 cells/mouse. PANC-1 cells that reached the logarithmic growth phase were transplanted subcutaneously by mixing a 1 × 10^8 cells/mL cell suspension with an equivalent volume of Matrigel (Corning, Corning, NY, USA) to obtain 1 × 10^7 cells per mouse. Experiments were performed after the size of the transplanted tumor had exceeded 50 mm^3. The doses in the distribution experiments were as follows: ^211At-AAMT-OH-L (0.501 ± 0.011 MBq/mouse, 19.91 ± 0.59 g, n = 3) and ^211At-AAMT-O-Me-L (0.384 ± 0.003 MBq/mouse, 19.18 ± 0.38 g, n = 6 for Table 3), ^211At-AAMT-O-Me-L (158.10 ± 2.94 kBq/mouse, 19.27 ± 0.64 g, n = 6) and ^211At-AAMT-O-Me-D (135.08 ± 2.35 kBq/mouse, 18.64 ± 0.97 g, n = 6), ^211At-AAMT-O-Et-L (0.682 ± 0.011 MBq/mouse, 20.25 ± 1.41 g, n = 6), ^211At-AAMT-O-Pr-L (0.927 ± 0.020 MBq/mouse, 21.74 ± 0.37 g, n = 6).

[1] = Tissue distribution in ICR mice (normal animals); format: in vivo
From the text: ICR mice (male, 5 weeks old) were purchased from Japan SLC (Shizuoka, Japan) and acclimated for one week prior to use. The doses in the distribution experiments were as follows: ^211At-AAMT-O-Me-L (0.407 ± 0.005 MBq/mouse, 31.64 ± 0.76 g, n = 6), ^211At-AAMT-O-Me-D (0.351 ± 0.004 MBq/mouse, 31.44 ± 0.94 g, n = 6), ^211At-AAMT-O-Et-L (0.685 ± 0.010 MBq/mouse, 24.14 ± 3.31 g, n = 6), ^211At-AAMT-O-Pr-L (1.09 ± 0.06 MBq/mouse, 26.33 ± 0.39 g, n = 6)

CCCOc1ccc(C[C@](C)(N)C(=O)O)cc1[211At] [^211At-AAMT-O-Pr-L]
Uptake ratio versus LAT1 expression (doxycycline concentration) (LAT1-Tet/HEK293 cells): lower cellular uptake when LAT1 expression increased
Tissue distribution, Bladder (PANC-1 tumor model; 10 min after injection): 18.24 ± 4.50 %ID/g
Tissue distribution, Blood (PANC-1 tumor model; 10 min after injection): 4.33 ± 0.45 %ID/g
Tissue distribution, Bone (PANC-1 tumor model; 10 min after injection): 3.50 ± 0.13 %ID/g
Tissue distribution, Brain (PANC-1 tumor model; 10 min after injection): 1.01 ± 0.04 %ID/g
Tissue distribution, Cecum (PANC-1 tumor model; 10 min after injection): 3.35 ± 0.30 %ID/g
Tissue distribution, Colon (PANC-1 tumor model; 10 min after injection): 4.56 ± 0.31 %ID/g
Tissue distribution, Heart (PANC-1 tumor model; 10 min after injection): 9.66 ± 0.87 %ID/g
Tissue distribution, Kidney (PANC-1 tumor model; 10 min after injection): 10.29 ± 0.97 %ID/g
Tissue distribution, Liver (PANC-1 tumor model; 10 min after injection): 3.67 ± 0.41 %ID/g
Tissue distribution, Lung (PANC-1 tumor model; 10 min after injection): 18.16 ± 1.88 %ID/g
Tissue distribution, Pancreas (PANC-1 tumor model; 10 min after injection): 10.85 ± 1.53 %ID/g
Tissue distribution, Salivary glands (PANC-1 tumor model; 10 min after injection): 11.89 ± 0.06 %ID/g
Tissue distribution, Small intestine (PANC-1 tumor model; 10 min after injection): 6.80 ± 0.63 %ID/g
Tissue distribution, Spleen (PANC-1 tumor model; 10 min after injection): 11.84 ± 1.91 %ID/g
Tissue distribution, Stomach (PANC-1 tumor model; 10 min after injection): 7.31 ± 0.30 %ID/g
Tissue distribution, Testis (PANC-1 tumor model; 10 min after injection): 3.54 ± 0.28 %ID/g
Tissue distribution, Thyroid (PANC-1 tumor model; 10 min after injection): 9.74 ± 0.39 %ID/g
Tissue distribution, Tumor (PANC-1 tumor model; 10 min after injection): 5.91 ± 0.27 %ID/g
Tissue distribution, Bladder (PANC-1 tumor model; 1 h after injection): 18.00 ± 0.97 %ID/g
Tissue distribution, Blood (PANC-1 tumor model; 1 h after injection): 3.09 ± 0.25 %ID/g
Tissue distribution, Bone (PANC-1 tumor model; 1 h after injection): 2.03 ± 0.45 %ID/g
Tissue distribution, Brain (PANC-1 tumor model; 1 h after injection): 0.79 ± 0.13 %ID/g
Tissue distribution, Cecum (PANC-1 tumor model; 1 h after injection): 3.07 ± 1.06 %ID/g
Tissue distribution, Colon (PANC-1 tumor model; 1 h after injection): 3.27 ± 0.46 %ID/g
Tissue distribution, Heart (PANC-1 tumor model; 1 h after injection): 5.39 ± 1.06 %ID/g
Tissue distribution, Kidney (PANC-1 tumor model; 1 h after injection): 5.76 ± 0.67 %ID/g
Tissue distribution, Liver (PANC-1 tumor model; 1 h after injection): 2.41 ± 0.24 %ID/g
Tissue distribution, Lung (PANC-1 tumor model; 1 h after injection): 14.15 ± 1.78 %ID/g
Tissue distribution, Pancreas (PANC-1 tumor model; 1 h after injection): 3.54 ± 0.49 %ID/g
Tissue distribution, Salivary glands (PANC-1 tumor model; 1 h after injection): 20.98 ± 3.26 %ID/g
Tissue distribution, Small intestine (PANC-1 tumor model; 1 h after injection): 5.08 ± 0.53 %ID/g
Tissue distribution, Spleen (PANC-1 tumor model; 1 h after injection): 17.42 ± 6.48 %ID/g
Tissue distribution, Testis (PANC-1 tumor model; 1 h after injection): 3.56 ± 0.41 %ID/g
Tissue distribution, Thyroid (PANC-1 tumor model; 1 h after injection): 16.44 ± 1.16 %ID/g
Tissue distribution, Tumor (PANC-1 tumor model; 1 h after injection): 9.45 ± 0.82 %ID/g
Tissue distribution, Bladder ([1]; 1 h after injection): 20.82 ± 5.36 %ID/g
Tissue distribution, Blood ([1]; 1 h after injection): 1.77 ± 0.15 %ID/g
Tissue distribution, Bone ([1]; 1 h after injection): 1.79 ± 0.12 %ID/g
Tissue distribution, Brain ([1]; 1 h after injection): 0.25 ± 0.02 %ID/g
Tissue distribution, Cecum ([1]; 1 h after injection): 1.49 ± 0.14 %ID/g
Tissue distribution, Colon ([1]; 1 h after injection): 1.35 ± 0.07 %ID/g
Tissue distribution, Heart ([1]; 1 h after injection): 3.14 ± 0.20 %ID/g
Tissue distribution, Kidney ([1]; 1 h after injection): 2.25 ± 0.19 %ID/g
Tissue distribution, Liver ([1]; 1 h after injection): 1.18 ± 0.08 %ID/g
Tissue distribution, Lung ([1]; 1 h after injection): 6.54 ± 0.34 %ID/g
Tissue distribution, Pancreas ([1]; 1 h after injection): 2.55 ± 0.60 %ID/g
Tissue distribution, Salivary glands ([1]; 1 h after injection): 14.23 ± 3.16 %ID/g
Tissue distribution, Small intestine ([1]; 1 h after injection): 1.83 ± 0.23 %ID/g
Tissue distribution, Spleen ([1]; 1 h after injection): 4.11 ± 0.11 %ID/g
Tissue distribution, Stomach ([1]; 1 h after injection): 13.55 ± 2.66 %ID/g
Tissue distribution, Testis ([1]; 1 h after injection): 3.66 ± 0.14 %ID/g
Tissue distribution, Thymus ([1]; 1 h after injection): 2.03 ± 0.28 %ID/g
Tissue distribution, Thyroid ([1]; 1 h after injection): 23.08 ± 3.56 %ID/g
Tissue distribution, Bladder ([1]; 3 h after injection): 5.37 ± 0.73 %ID/g
Tissue distribution, Blood ([1]; 3 h after injection): 1.30 ± 0.12 %ID/g
Tissue distribution, Bone ([1]; 3 h after injection): 1.32 ± 0.12 %ID/g
Tissue distribution, Brain ([1]; 3 h after injection): 0.16 ± 0.01 %ID/g
Tissue distribution, Cecum ([1]; 3 h after injection): 1.13 ± 0.25 %ID/g
Tissue distribution, Colon ([1]; 3 h after injection): 1.29 ± 0.25 %ID/g
Tissue distribution, Heart ([1]; 3 h after injection): 2.16 ± 0.18 %ID/g
Tissue distribution, Kidney ([1]; 3 h after injection): 1.93 ± 0.29 %ID/g
Tissue distribution, Liver ([1]; 3 h after injection): 0.82 ± 0.14 %ID/g
Tissue distribution, Lung ([1]; 3 h after injection): 5.09 ± 0.43 %ID/g
Tissue distribution, Pancreas ([1]; 3 h after injection): 1.60 ± 0.31 %ID/g
Tissue distribution, Salivary glands ([1]; 3 h after injection): 11.39 ± 0.33 %ID/g
Tissue distribution, Small intestine ([1]; 3 h after injection): 1.92 ± 0.12 %ID/g
Tissue distribution, Spleen ([1]; 3 h after injection): 3.56 ± 0.54 %ID/g
Tissue distribution, Stomach ([1]; 3 h after injection): 32.05 ± 3.31 %ID/g
Tissue distribution, Testis ([1]; 3 h after injection): 2.34 ± 0.42 %ID/g
Tissue distribution, Thymus ([1]; 3 h after injection): 1.76 ± 0.25 %ID/g
Tissue distribution, Thyroid ([1]; 3 h after injection): 24.75 ± 3.77 %ID/g
